Reference: US20240041876A1, “PHARMACEUTICAL COMPOSITION FOR PREVENTION OR TREATMENT OF DEGENERATIVE BRAIN DISEASES COMPRISING ABEMACICLIB AS ACTIVE INGREDIENT” (priority 2020, published 2024)

How the values were obtained:
[1] = test system: BV2 microglia; assay: MTT assay, cytotoxicity to BV2 microglia; assay type: cell-based; details: 0.1, 1, 5, 10, 25, or 50 μM; 24 hours in the absence of FBS
Experimental: Cell viability was measured using the 3-(4,5-dimethylthiazol-2-yl)-2,5-diphenyltetrazolium bromide (MTT) assay. BV2 microglia were seeded in a 96-well plate and treated with various concentrations of abemaciclib mesylate (0.1, 1, 5, 10, 25, 50 μM) for 24 hours in the absence of FBS. Then, the cells were treated with 0.5 mg/ml MTT and incubated at 37° C. for 3 hours in a 5% CO2 incubator, and absorbance was measured at 580 nm.
To determine whether or not abemaciclib is cytotoxic to BV2 microglia, BV2 microglia were treated with abemaciclib at different concentrations (0.1, 1, 5, 10, 25, or 50 μM) and then MTT assay was performed.

[2] = test system: 5×FAD mice; assay: Abemaciclib versus donepezil: tau kinases phospho-GSK-3β and DYRK1A in 5×FAD mice; assay type: in vivo, mouse; details: abemaciclib 30 mg/kg or donepezil 1 mg/kg intraperitoneal daily for 14 days
Experimental: F1-generation male 5×FAD mice (stock #34848-JAX, B6Cg-Tg APPSwF1Lon, PSEN1*M146L*L286V6799Vas/Mmjax) purchased from Jackson Laboratory were used. 5×FAD mice (3 months old) were bred in a sterile facility under 12-hour light/dark controlled conditions at an ambient temperature of 22° C. After daily administration of abemaciclib (30 mg/kg, intraperitoneal administration) or vehicle (10% DMSO) to 5×FAD mice for 14 days, Y maze test on day 15 and NOR test on day 16 to 17 were performed, followed by fluorescent tissue staining or Golgi staining.
Then, each brain section was subjected to immunohistochemical staining. Brain sections were rinsed in PBS and permeabilized for 1 hour at room temperature using PBS containing 0.2% Triton X-100 and 1% BSA. Then, the primary antibody was diluted in PBST (0.2% Triton X-100 in PBS) and reacted at 4° C. for 24 hours, and the next day, the tissue was washed three times with PBST, and then reacted with a secondary antibody bound with a fluorescent signal at room temperature for 2 hours. Then, the brain sections were washed three times with PBS, placed on slides, and observed under a fluorescence microscope.

[3] = test system: 5×FAD mice; assay: Abemaciclib versus donepezil: astrocyte activity in 5×FAD mice (anti-GFAP, anti-6E10); assay type: in vivo, mouse; details: abemaciclib 30 mg/kg or donepezil 1 mg/kg intraperitoneal daily for 14 days
[4] = test system: 5×FAD mice; assay: Abemaciclib versus donepezil: cognitive function in 5×FAD mice (Y maze, NOR); assay type: in vivo, mouse; details: abemaciclib 30 mg/kg or donepezil 1 mg/kg intraperitoneal daily for 14 days
Experimental: Then, percent alteration=(number of alterations/number of triads)×100 was obtained and used as a parameter of short-term memory. • Alteration: 1 point awarded when the mouse enters three different arms in turn • Triads: Total visits—2
The animal was allowed to start from the center of the box, and the time at which the animal was interested in the object was recorded for 5 minutes. After 24 hours, one of the two objects was replaced with fresh one, the times at which the mouse approached the old object and the fresh object were measured, and the preference for the new object was analyzed and used as a long-term memory analysis index.

SMILES | cytotoxicity to BV2 microglia (MTT assay) [1] | expression of DYRK1A, a tau kinase, in the cortex [2] | expression of DYRK1A, a tau kinase, in the hippocampus [2] | hippocampal phospho-GSK-3β levels [2] | number of astrocytes directly interacting with amyloid plaques [3] | short-term memory (Y maze) ([4]; day 15) | long-term memory (NOR test) ([4]; day 16-17)
CCN1CCN(Cc2ccc(Nc3ncc(F)c(-c4cc(F)c5nc(C)n(C(C)C)c5c4)n3)nc2)CC1 [abemaciclib] | did not induce cytotoxicity | – | – | – | – | – | –
COc1cc2c(cc1OC)C(=O)C(CC1CCN(Cc3ccccc3)CC1)C2 (stereo not shown) [donepezil] | – | reduced | reduced | reduced | reduced | improved | improved
